The target in assay [1] is T1, Human M4 (Homo sapiens, UniProt P08173).
T1 construct: expressed in transfected cells
T1 sequence (P08173 1-479): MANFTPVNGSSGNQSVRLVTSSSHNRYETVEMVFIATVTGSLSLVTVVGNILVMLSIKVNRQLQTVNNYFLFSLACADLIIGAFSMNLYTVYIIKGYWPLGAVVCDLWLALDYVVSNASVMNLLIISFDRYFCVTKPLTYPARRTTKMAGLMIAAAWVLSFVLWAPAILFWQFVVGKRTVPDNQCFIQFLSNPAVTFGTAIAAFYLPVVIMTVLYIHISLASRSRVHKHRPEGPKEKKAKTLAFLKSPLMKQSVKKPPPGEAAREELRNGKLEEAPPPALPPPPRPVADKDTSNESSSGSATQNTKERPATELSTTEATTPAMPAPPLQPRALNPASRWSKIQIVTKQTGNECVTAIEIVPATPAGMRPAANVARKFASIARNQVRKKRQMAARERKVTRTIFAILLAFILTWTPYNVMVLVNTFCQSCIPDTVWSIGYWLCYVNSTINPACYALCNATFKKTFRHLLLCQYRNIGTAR
The assay is described as follows: M4 cell-based functional assay, calcium mobilization, potentiation of ACh EC20. As to conditions: for Emax at 30 µM: % ACh maximum at 30 μM; for EC50: CHO-K1 hM4-Gqi5 cells, calcium flux, ACh EC20. The method, then:
Human and rat M4 cDNAs, along with the chimeric G protein Gqi5, were transfected into Chinese hamster ovary (CHO-K1) cells purchased from the American Type Culture Collection using Lipofectamine2000. The transfected cells were subjected to selection antbiotic treatment to generate stable cell lines; G418 sulfate (1 mg/ml) for selecting M4 expressing cells and Hygromycin B (500 μg/mL) for selecting Gqi5 expressing cells. The resulting polyclones were further screened to obtain monoclones of hM4-Gqi5 and rM4-Gqi5 for compound screening assay. Stable monoclone cells were maintained in Ham's F-12 medium containing 10% heat-inactivated fetal bovine serum (FBS), 1× Antibiotic/Antimycotic, 20 mM HEPES, 500 μg/mL G418 sulfate, and 200 μg/mL Hygromycin B in 37° C. humidified incubators in the presence of 5% CO2.
(§1) The high throughput assay was employed to measure receptor-induced mobilization of intracellular calcium to determine compound activity. Test compound was added to cells expressing the muscarinic receptors that were loaded with calcium sensitive fluorescent dye. After a ˜2.5 minute incubation period, a submaximal (EC20) concentration of acetylcholine was added, and the response measured. This kinetic assay allows for simultaneous screening and potency determination of multiple pharmacological modes of action including agonist and potentiator activity. CHO-K1 cells stably expressing muscarinic receptors were plated in growth medium lacking G418 and hygromycin at 15,000 cells/20 μL/well in Greiner 384-well black-walled, tissue culture (TC)-treated, clear-bottom plates (Greiner Bio-One). Cells were incubated overnight at 37° C. and 5% CO2. The next day, calcium assay buffer (Hank's balanced salt solution (HBSS), 20 mM HEPES, 2.5 mM Probenecid, 4.16 mM sodium bicarbonate (Sigma-Aldrich, St. Louis, MO)) was prepared to dilute compounds, agonists, and Fluo-4-acetomethoxyester (Fluo-4-AM), fluorescent calcium indicator dye. Compounds were serially diluted 1:3 into 10 point concentration response curves in DMSO using the Bravo Liquid Handler (Agilent, Santa Clara, CA), transferred to a 384 well daughter plates using an Echo acoustic liquid handler (Beckman Coulter, Indianapolis, Indiana), and diluted in assay Buffer to a 2× final concentration. The agonist plates were prepared using acetylcholine (ACh, Sigma-Aldrich, St. Louis, MO) concentrations for the EC20 and ECMAX responses by diluting in assay buffer to a 5× final concentration. The 2× dye solution (2.3 μM) was prepared by mixing a 2.3 mM Fluo-4-AM stock in DMSO with 10% (w/v) pluronic acid F-127 in a 1:1 ratio in assay buffer. Using a microplate washer (BioTek, Winooski, VT), cells were washed with assay buffer for 3 times to remove medium. After the final wash, 20 μL of assay buffer remained in the cell plates. Immediately, 20 μL of the 2× dye solution (final 1.15 μM) was added to each well of the cell plate using a Multidrop Combi dispenser (Thermo Fisher, Waltham, MA). After cells were incubated with the dye solutions for 45 min at 37° C. in the presence of 5% CO2, the dye solutions were removed and replaced with assay buffer using a microplate washer, leaving 20 μL of assay buffer in the cell plate.
The prepared compound, agonist, and cell plates were placed inside the Functional Drug Screening System uCell (FDSS uCell, Hamamatsu, Japan) to measure the calcium flux. The triple add protocol was used to measure Ca kinetics; Compound, ACh for EC20, and ACh for EC80 adds in an order. Briefly, after establishment of a fluorescence baseline for 2 seconds (excitation, 480 nm; emission, 530 nm), first add occurred by adding 20 μL of test compound to the cells, and the response was measured for 140 seconds. This is followed by second add; 10 μL (5×) of an EC20 concentration of ACh agonist was added to the cells, and the response of the cells was measured for 125 seconds. […]

Assay [2] concerns the target T2, Human M2 (Homo sapiens, UniProt P08172).
T2 construct: expressed in transfected cells; host or cells: CHO-K1
T2 sequence (P08172 1-466): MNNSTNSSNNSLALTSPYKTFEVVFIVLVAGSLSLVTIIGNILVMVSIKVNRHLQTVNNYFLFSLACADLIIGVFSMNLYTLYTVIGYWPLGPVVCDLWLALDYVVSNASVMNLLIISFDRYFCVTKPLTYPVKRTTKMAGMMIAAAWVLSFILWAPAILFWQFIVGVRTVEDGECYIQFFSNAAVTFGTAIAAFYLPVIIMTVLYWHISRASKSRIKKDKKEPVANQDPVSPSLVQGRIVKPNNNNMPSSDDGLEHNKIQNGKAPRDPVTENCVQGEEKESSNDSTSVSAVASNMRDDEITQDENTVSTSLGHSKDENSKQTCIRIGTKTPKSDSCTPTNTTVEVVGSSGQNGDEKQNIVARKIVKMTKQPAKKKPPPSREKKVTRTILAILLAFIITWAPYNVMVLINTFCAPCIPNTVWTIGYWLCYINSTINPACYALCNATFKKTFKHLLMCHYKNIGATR
The assay is described as follows: M2 cell-based functional assay, calcium mobilization (selectivity). As to conditions: for Emax at 30 µM: % ACh maximum at 30 μM; for EC50 / Human M2 EC50: M2 cell-based functional assay, calcium flux. The protocol: as §1
The prepared compound, agonist, and cell plates were placed inside the Functional Drug Screening System uCell (FDSS uCell, Hamamatsu, Japan) to measure the calcium flux. The triple add protocol was used to measure Ca kinetics; Compound, ACh for EC20, and ACh for EC80 adds in an order. Briefly, after establishment of a fluorescence baseline for 2 seconds (excitation, 480 nm; emission, 530 nm), first add occurred by adding 20 μL of test compound to the cells, and the response was measured for 140 seconds. This is followed by second add; 10 μL (5×) of an EC20 concentration of ACh agonist was added to the cells, and the response of the cells was measured for 125 seconds. Immediately, the third add occurred by adding […] (5×) of an EC80 concentration of ACh and the response of the cells was measured for 90 seconds. Acetylcholine-mediated maximum response (ECmax) was measured by adding 1 mM ACh as third add in the control wells. DMSO vehicle was added to the control wells in the first add for assessing ACh EC20, EC80, and ECmax responses. Calcium fluorescence was recorded as fold over basal fluorescence and raw data were normalized to the maximal response to ACh agonist. Agonist activity was analyzed as a concentration-dependent increase in calcium mobilization upon compound addition. Positive allosteric modulator activity was analyzed as a concentration-dependent increase in the EC20 acetylcholine response. Antagonist activity was analyzed as a concentration-dependent decrease in the EC80 acetylcholine response. […]

With `[2H]C1([2H])Oc2ccc(OC3CCN(c4nc5nn(C(C)COC)c(=O)n5cc4C)CC3)cc2OC1([2H])[2H]` (centres unmarked) [Compound A7, 7-(4-((2,3-dihydrobenzo[b][1,4]dioxin-6-yl-2,2,3,3-d4)oxy)piperidin-1-yl)-2-(1-methoxypropan-2-yl)-6-methyl-[1,2,4]triazolo[4,3-a]pyrimidin-3(2H)-one], in assay [1], the Emax at 30 µM was 89% and the concentration for a half-maximal effect (EC50) stood at 53 nM. In assay [2], the Emax at 30 µM worked out at 47% and the EC50 was greater than 10000 nM.

As for `[2H]C1([2H])Oc2ccc(OC3CCN(c4nc5nn(CC6CN(C)CCO6)c(=O)n5cc4C)CC3)cc2OC1([2H])[2H]` (centres unmarked) [Compound A8, 7-(4-((2,3-dihydrobenzo[b][1,4]dioxin-6-yl-2,2,3,3-d4)oxy)piperidin-1-yl)-6-methyl-2-((4-methylmorpholin-2-yl)methyl)-[1,2,4]triazolo[4,3-a]pyrimidin-3(2H)-one], in assay [1], the maximal response (Emax) at 30 µM is 95% and the concentration for a half-maximal effect (EC50) was determined as 48 nM. Further, the “Human M2 EC50” value in assay [2] was “Inactive”.

With `[2H]C1([2H])Oc2ccc(OC3CCN(c4nc5c(cc4C)C(=O)N(C4CCCC4)C5)CC3)cc2OC1([2H])[2H]` [Compound 7, 6-cyclopentyl-2-(4-((2,3-dihydrobenzo[b][1,4]dioxin-6-yl-2,2,3,3-d4)oxy)piperidin-1-yl)-3-methyl-6,7-dihydro-5H-pyrrolo[3,4-b]pyridin-5-one], in assay [1], the Emax at 30 µM is 76% and the half-maximal effective concentration (EC50) was 65 nM. Besides, in assay [2], the maximal response (Emax) at 30 µM was found to be 53% and the EC50 stood at 3750 nM.

For `[2H]C([2H])([2H])n1nc2nc(N3CCC(Oc4ccc5c(c4)OC([2H])([2H])C([2H])([2H])O5)CC3)c(C)c(C3CC3)n2c1=O` [Compound A13, 5-cyclopropyl-7-(4-((2,3-dihydrobenzo[b][1,4]dioxin-6-yl-2,2,3,3-d4)oxy)piperidin-1-yl)-6-methyl-2-(methyl-d3)-[1,2,4]triazolo[4,3-a]pyrimidin-3(2H)-one], in assay [1], the Emax at 30 µM is 103% and the EC50 stood at 28 nM. In addition, the “Human M2 EC50” value in assay [2] is listed as “Inactive”.

As to `[2H]C1([2H])Oc2ccc(OC3CCN(c4nc5nn(C)c(=O)n5c(Cl)c4C)CC3)cc2OC1([2H])[2H]` [Compound A11, 5-chloro-7-(4-((2,3-dihydrobenzo[b][1,4]dioxin-6-yl-2,2,3,3-d4)oxy)piperidin-1-yl)-2,6-dimethyl-[1,2,4]triazolo[4,3-a]pyrimidin-3(2H)-one], the Emax at 30 µM was found to be 90% in assay [1] and 57% in assay [2]. Besides, the EC50 in assay [1] is 12 nM; in assay [2], 6090 nM.

As to `[2H]C1([2H])Oc2ccc(OC3CCN(c4nc5c(cc4C)C(=O)N(C)C5)CC3)cc2OC1([2H])[2H]` [Compound 5, 2-(4-((2,3-dihydrobenzo[b][1,4]dioxin-6-yl-2,2,3,3-d4)oxy)piperidin-1-yl)-3,6-dimethyl-6,7-dihydro-5H-pyrrolo[3,4-b]pyridin-5-one], in assay [1], the Emax at 30 µM was determined as 76% and the concentration giving a half-maximal response (EC50) was found to be 4 nM. Besides, in assay [2], the Emax at 30 µM is 70% and the EC50 amounted to 219 nM.

`[2H]C1([2H])Oc2ccc(OC3CCN(c4nc5c(c(C)c4C)C(=O)N(C)C5)CC3)cc2OC1([2H])[2H]` [Compound 12, 2-(4-((2,3-dihydrobenzo[b][1,4]dioxin-6-yl-2,2,3,3-d4)oxy)piperidin-1-yl)-3,4,6-trimethyl-6,7-dihydro-5H-pyrrolo[3,4-b]pyridin-5-one]: the maximal effect (Emax) at 30 µM in assay [1] amounted to 103%; in assay [2], 54%. Further, the values for the EC50 in assay [1] and in assay [2] were 7 nM and 2380 nM, respectively.

For the molecule `[2H]C1([2H])Oc2ccc(OC3CCN(c4nc5c(cc4C)C(=O)N(C4CC4)C5)CC3)cc2OC1([2H])[2H]` [Compound 6, 6-cyclopropyl-2-(4-((2,3-dihydrobenzo[b][1,4]dioxin-6-yl-2,2,3,3-d4)oxy)piperidin-1-yl)-3-methyl-6,7-dihydro-5H-pyrrolo[3,4-b]pyridin-5-one], in assay [1], the Emax at 30 µM came to 78% and the concentration for a half-maximal effect (EC50) stood at 9 nM. For the same molecule, in assay [2], the Emax at 30 µM came to 64% and the EC50 was 867 nM.

`[2H]C1([2H])Oc2ccc(OC3CCN(c4nc5n[nH]c(=O)n5c5c4CCC5)CC3)cc2OC1([2H])[2H]` [Compound A16, 5-(4-((2,3-dihydrobenzo[b][1,4]dioxin-6-yl-2,2,3,3-d4)oxy)piperidin-1-yl)-2,6,7,8-tetrahydro-1H-cyclopenta[e][1,2,4]triazolo[4,3-a]pyrimidin-1-one]: the values for the maximal response (Emax) at 30 µM in assay [1] and in assay [2] were 84% and 48%, respectively. The concentration giving a half-maximal response (EC50) was determined as 4 nM in assay [1] and 2860 nM in assay [2].

Turning to `[2H]C1(Oc2ccc3c(c2)OC([2H])([2H])C([2H])([2H])O3)CCN(c2nc3c(cc2C)C(=O)NC3)CC1` [Compound 1, 2-(4-((2,3-dihydrobenzo[b][1,4]dioxin-6-yl-2,2,3,3-d4)oxy)piperidin-1-yl-4-d)-3-methyl-6,7-dihydro-5H-pyrrolo[3,4-b]pyridin-5-one], in assay [1], the maximal effect (Emax) at 30 µM turned out to be 108% and the concentration giving a half-maximal response (EC50) worked out at 3 nM. Further, in assay [2], the Emax at 30 µM is 69% and the half-maximal effective concentration (EC50) was found to be 346 nM.

(Values after patent US12552790B2, “Positive modulators of the muscarinic acetylcholine receptor M4” (Vanderbilt University, priority 2023, dated 2026).)
